Converted amounts (≈) assume the structure as drawn. Read-outs that look alike come from different tables or passages of the source.
Assays:
[1] = test system: Micrococcus luteus ATCC 10240; experiment: Broth microdilution MIC/MBC; format: cell-based; conditions: for MBC: ATCC10240
Method in brief: (§1)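 Compounds in DMSO were two-fold diluted in Mueller-Hinton broth (bacteria) or RPMI 1640 with MOPS (fungi), final 1000 to 0.488 µg/ml.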

[2] = test system: Proteus mirabilis ATCC 12453; experiment: Broth microdilution MIC/MBC; format: cell-based
Method in brief: as §1

[3] = test system: Pseudomonas aeruginosa ATCC 9027; experiment: Broth microdilution MIC/MBC; format: cell-based; conditions: ATCC9027
Method in brief: as §1

[4] = test system: Salmonella typhimurium ATCC 14028; experiment: Broth microdilution MIC/MBC; format: cell-based
Method in brief: as §1

[5] = test system: Staphylococcus aureus ATCC 29213; experiment: Broth microdilution MIC/MBC; format: cell-based; conditions: for MBC / MIC: ATCC29213
Method in brief: as §1

[6] = test system: Staphylococcus aureus ATCC 43300; experiment: Broth microdilution MIC/MBC; format: cell-based; conditions: Staphylococcus aureus ATCC 43300 (MRSA)
Method in brief: as §1

[7] = test system: Staphylococcus epidermidis ATCC 12228; experiment: Broth microdilution MIC/MBC; format: cell-based; conditions: for MBC: ATCC12228; for MIC: ATCC12228, read-out: MIC
Method in brief: as §1

[8] = test system: Bacillus subtilis ATCC 6633; experiment: Broth microdilution MIC/MBC; format: cell-based; conditions: for MBC: ATCC6633
Method in brief: as §1

[9] = test system: Bacillus cereus ATCC 10876; experiment: Broth microdilution MIC/MBC; format: cell-based; conditions: for MBC: ATCC10876; for MIC: ATCC10876, read-out: MIC
Method in brief: as §1

[10] = test system: Bordetella bronchiseptica ATCC 4617; experiment: Broth microdilution MIC/MBC; format: cell-based
Method in brief: as §1

[11] = test system: Enterococcus faecalis ATCC 29212; experiment: Broth microdilution MIC/MBC; format: cell-based; conditions: for MBC: ATCC29212, read-out: MBC; for MIC: ATCC29212, read-out: MIC
Method in brief: as §1

[12] = test system: Escherichia coli ATCC 25922; experiment: Broth microdilution MIC/MBC; format: cell-based
Method in brief: as §1

[13] = test system: Klebsiella pneumoniae ATCC 13883; experiment: Broth microdilution MIC/MBC; format: cell-based
Method in brief: as §1

[14] = test system: Candida albicans ATCC 10231; experiment: Broth microdilution MIC/MFC; format: cell-based; conditions: ATCC10231, read-out: MIC
Method in brief: as §1

[15] = test system: Candida albicans ATCC 2091; experiment: Broth microdilution MIC/MFC; format: cell-based; conditions: ATCC2091, read-out: MIC
Method in brief: as §1

[16] = test system: Candida glabrata ATCC 90030; experiment: Broth microdilution MIC/MFC; format: cell-based; conditions: for MIC: ATCC90030, read-out: MIC
Method in brief: as §1

[17] = test system: Candida krusei ATCC 14243; experiment: Broth microdilution MIC/MFC; format: cell-based; conditions: Pichia kudriavzevii, ATCC14243, read-out: MIC
Method in brief: as §1

[18] = test system: Candida parapsilosis ATCC 22019; experiment: Broth microdilution MIC/MFC; format: cell-based; conditions: for MIC: ATCC22019, read-out: MIC
Method in brief: as §1

[19] = test system: reference Gram-positive bacteria; experiment: Broth microdilution, summary over the Gram-positive panel; format: cell-based; conditions: read-out: MIC
Source text: (§2) In vitro antimicrobial activity assays - Methodology
(§3) The examined compounds 1 - 24 were screened in vitro for antibacterial and antifungal activities using the broth microdilution method according to procedure reported earlier by our research group and European Committee on Antimicrobial Susceptibility Testing (EUCAST) and Clinical and Laboratory Standards Institute (CLSI) guidelines against a panel of reference and clinical or saprophytic strains of microorganisms, in-cluding Gram-positive bacteria, Staphylococcus aureus ATCC 43300 (Methicillin Resistant S. aureus – MRSA), Staphylococcus aureus ATCC 29213 (Methicillin Susceptible S. aureus – MSSA), Staphylococcus epidermidis ATCC 12228, Enterococcus faecalis ATCC 29212, Micro-coccus luteus ATCC 10240, Bacillus subtilis ATCC 6633 and Bacillus cereus ATCC 10876), Gram-negative bacteria (Bordetella bronchiseptica ATCC 4617, Escherichia coli ATCC 25922, Klebsiella pneumoniae ATCC 13883, Proteus mirabilis ATCC 12453, Salmonella typhimurium ATCC 14028 and Pseudomonas aeruginosa ATCC 9027) and fungi belonging to yeasts (Can-dida albicans ATCC 10231, Candida albicans ATCC 2091, Candida parapsilosis ATCC 22019, Candida glabrata ATCC 90030 and Candida krusei ATCC 14243). The microorganisms be-longing to ATCC came from American Type Culture Collection, routinely used for the evaluation of antimicrobials. […]
Samples containing examined compounds were dissolved in dimethyl sulfoxide (DMSO). […]
(§4) Subsequently, the MIC (Minimal Inhibitory Concentration) of the compounds was ex-amined by the microdilution broth method, using their two-fold dilutions in Mueller- […]
(§5) Hinton broth or (for bacteria) and RPMI 1640 broth with MOPS (for fungi) prepared in 96-well polystyrene plates. Final concentrations of the compounds ranged from 1000 to 0.488 µg/ml. Microbial suspensions were prepared in 0.85% NaCl with an optical density of 0.5 McFarland standard. Next each bacterial or fungal suspension was added per each well containing broth and various concentrations of the examined compounds. After incuba-

Gram-negative bacteria = experiment: Broth microdilution, summary over the Gram-negative panel; format: cell-based
Source text: as §2
as §3, with “antimicrobials. All the used microbial cultures were first subcultured on nu-trient agar or Sabouraud agar at 35°C for 18-24 h or 30°C for 24-48 h for bacteria and fungi,” for “antimicrobials.”
The surface of Mueller-Hinton agar (for bacteria) and RPMI 1640 with MOPS (for fungi) were inoculated with the suspensions of bacterial or fungal species. Microbial suspensions were prepared in sterile saline with an optical density of McFarland standard scale 0.5.
Samples containing examined compounds were dissolved in dimethyl sulfoxide (DMSO).
Furthermore, bacterial and fungal suspensions were put onto Petri dishes with solid me-dia containing 2 mg/mL of the tested compounds followed incubation at 37°C for 24h and 30°C for 48h for bacteria and fungi, respectively. The inhibition of microbial growth was judged by comparison with a control culture prepared without any sample tested. Ciprof-loxacin, vancomycin, nitrofurantoin, cefuroxime, ampicillin or nystatin (Sigma) were used as a reference antibacterial or antifungal compounds, respectively.
as §4, §5

## Cc1cccc(/C=N/NC(=O)c2ccc(O)cc2O)c1 [Compound 2, 2,4-dihydroxy-N-[(3-methylphenyl)methylidene]benzohydrazide]
[1]
  MBC/MIC: 8
  MIC: 31.25 µg/mL (≈ 116 µM)
  MBC: 250 µg/mL (≈ 925 µM)
[1]; ATCC10240, read-out: MIC
  MIC: 31.2 µg/mL (≈ 116 µM)
[2]
  MBC/MIC: > 1
[2]; ATCC12453
  MBC: > 1000 µg/mL
  MIC: 1000 µg/mL (≈ 3700 µM)
[3]
  MIC: > 1000 µg/mL
[4]
  MBC/MIC: > 1
[4]; Salmonella enterica
  MBC: > 1000 µg/mL
  MIC: 1000 µg/mL (≈ 3700 µM)
[5]
  MBC/MIC: 1
  MBC: 250 µg/mL (≈ 925 µM)
  MIC: 250 µg/mL (≈ 925 µM)
[6]
  MBC: 500 µg/mL (≈ 1850 µM)
  MBC/MIC: 2
  MIC: 250 µg/mL (≈ 925 µM)
[7]
  MBC/MIC: 2
  MBC: 500 µg/mL (≈ 1850 µM)
  MIC: 250 µg/mL (≈ 925 µM)
[8]
  MBC/MIC: 8
  MIC: 62.5 µg/mL (≈ 231 µM)
  MBC: 500 µg/mL (≈ 1850 µM)
[8]; ATCC6633, read-out: MIC
  MIC: 62.5 µg/mL (≈ 231 µM)
[9]
  MBC/MIC: 2
  MBC: 250 µg/mL (≈ 925 µM)
  MIC: 125 µg/mL (≈ 462 µM)
[10]
  MBC/MIC: > 1
[10]; ATCC4617
  MBC: > 1000 µg/mL
  MIC: 1000 µg/mL (≈ 3700 µM)
[11]
  MBC/MIC: 1
  MBC: 500 µg/mL (≈ 1850 µM)
  MIC: 500 µg/mL (≈ 1850 µM)
[12]
  MBC/MIC: > 1
[12]; ATCC25922
  MBC: > 1000 µg/mL
  MIC: 1000 µg/mL (≈ 3700 µM)
[13]
  MBC/MIC: > 1
[13]; ATCC13883
  MBC: > 1000 µg/mL
  MIC: 1000 µg/mL (≈ 3700 µM)
[14]
  MIC: > 1000 µg/mL
[15]
  MIC: > 1000 µg/mL
[16]
  MFC/MIC: 2
[16]; Nakaseomyces glabratus, ATCC90030, read-out: MFC
  MFC: 500 µg/mL (≈ 1850 µM)
[16]; Nakaseomyces glabratus
  MIC: 250 µg/mL (≈ 925 µM)
[17]
  MIC: > 1000 µg/mL
[18]
  MFC/MIC: > 2
[18]; Lodderomyces parapsilosis, ATCC22019, read-out: MFC
  MFC: > 1000 µg/mL
[18]; Lodderomyces parapsilosis
  MIC: 500 µg/mL (≈ 1850 µM)
[19]
  MIC: 15.6 to 1000 µg/mL (≈ 57.8 to 3700 µM)
Gram-negative bacteria
  MBC: > 1000 µg/mL
  MIC: 500 to 1000 µg/mL (≈ 1850 to 3700 µM)

## COc1ccc(/C=N/NC(=O)c2ccc(O)cc2O)cc1Br [Compound 10, N-[(3-bromo-4-methoxyphenyl)methylidene]-2,4-dihydroxybenzohydrazide]
[1]
  MBC/MIC: > 4
  MBC: > 1000 µg/mL
[1]; ATCC10240, read-out: MIC
  MIC: 250 µg/mL (≈ 685 µM)
[2]; ATCC12453
  MIC: > 1000 µg/mL
[3]
  MIC: > 1000 µg/mL
[4]; Salmonella enterica
  MIC: > 1000 µg/mL
[5]
  MBC/MIC: 16
  MBC: 250 µg/mL (≈ 685 µM)
  MIC: 15.6 µg/mL (≈ 42.8 µM)
[6]
  MBC: 500 µg/mL (≈ 1370 µM)
  MBC/MIC: 16
  MIC: 31.2 µg/mL (≈ 85.6 µM)
[7]
  MBC/MIC: > 1
  MBC: 1000 µg/mL (≈ 2740 µM)
  MIC: 1000 µg/mL (≈ 2740 µM)
[8]
  MBC/MIC: > 4
  MBC: > 1000 µg/mL
[8]; ATCC6633, read-out: MIC
  MIC: 250 µg/mL (≈ 685 µM)
[9]
  MBC/MIC: 2
  MBC: 250 µg/mL (≈ 685 µM)
  MIC: 125 µg/mL (≈ 342 µM)
[10]; ATCC4617
  MIC: > 1000 µg/mL
[11]
  MBC/MIC: 4
  MBC: 1000 µg/mL (≈ 2740 µM)
  MIC: 250 µg/mL (≈ 685 µM)
[12]; ATCC25922
  MIC: > 1000 µg/mL
[13]; ATCC13883
  MIC: > 1000 µg/mL
[14]
  MIC: > 1000 µg/mL
[15]
  MIC: > 1000 µg/mL
[16]; Nakaseomyces glabratus
  MIC: > 1000 µg/mL
[17]
  MIC: > 1000 µg/mL
[18]; Lodderomyces parapsilosis
  MIC: > 1000 µg/mL
[19]
  MIC: 15.6 to 1000 µg/mL (≈ 42.8 to 2740 µM)
other
  melting point: 260 °C

## O=C(N/N=C/c1ccc(O)c(Br)c1)c1ccc(O)cc1O [Compound 11, N-[(3-bromo-4-hydroxyphenyl)methylidene]-2,4-dihydroxybenzohydrazide]
[1]
  MBC/MIC: > 8
  MBC: > 1000 µg/mL
[1]; ATCC10240, read-out: MIC
  MIC: 125 µg/mL (≈ 356 µM)
[2]; ATCC12453
  MIC: > 1000 µg/mL
[3]
  MIC: > 1000 µg/mL
[4]; Salmonella enterica
  MIC: > 1000 µg/mL
[5]
  MBC/MIC: > 4
  MBC: > 1000 µg/mL
  MIC: 250 µg/mL (≈ 712 µM)
[6]
  MBC: 1000 µg/mL (≈ 2850 µM)
  MBC/MIC: 2
  MIC: 500 µg/mL (≈ 1420 µM)
[7]
  MBC/MIC: 2
  MBC: 1000 µg/mL (≈ 2850 µM)
  MIC: 500 µg/mL (≈ 1420 µM)
[8]
  MBC/MIC: > 2
  MBC: > 1000 µg/mL
[8]; ATCC6633, read-out: MIC
  MIC: 500 µg/mL (≈ 1420 µM)
[9]
  MBC/MIC: > 4
  MBC: > 1000 µg/mL
  MIC: 250 µg/mL (≈ 712 µM)
[10]; ATCC4617
  MIC: > 1000 µg/mL
[11]
  MBC/MIC: > 2
  MBC: > 1000 µg/mL
  MIC: 500 µg/mL (≈ 1420 µM)
[12]; ATCC25922
  MIC: > 1000 µg/mL
[13]; ATCC13883
  MIC: > 1000 µg/mL
[14]
  MIC: > 1000 µg/mL
[15]
  MIC: > 1000 µg/mL
[16]; Nakaseomyces glabratus
  MIC: > 1000 µg/mL
[17]
  MIC: > 1000 µg/mL
[18]; Lodderomyces parapsilosis
  MIC: > 1000 µg/mL
[19]
  MIC: 15.6 to 1000 µg/mL (≈ 44.5 to 2850 µM)
other
  melting point: 232 °C
